For data set [1], the target named is T1, thrombin (Homo sapiens, UniProt P00734).
T1 construct: Human thrombin was purchased from Hematologic Technologies Inc. (Essex Junction, VT); purchased Hematologic Technologies Inc. (Essex Junction, VT)
The data set is described as follows: Hydrolysis of chromogenic substrate S2238 by thrombin in vitro. As to conditions: rutin up to 50 μM, 0.4 U/mL thrombin. The data set is classed as biochemical. The source says:
We tested the antithrombotic effects of NanoR and NaR ex vivo and in vivo. Thrombin plays a pivotal role in the coagulation process, and its amount reflects the hemostatic function (Mann, [2003]). […] In our clot formation study, the treatment with NanoR and NaR led to delayed clotting initiation time and a limited extent of clot formation. Again, NanoR exerted a stronger anticoagulatory effect than NaR, and excess exogenous PDI restored the coagulation function of pretreated plasma in clot formation assay. […] The link between obstructive atherosclerosis in the epicardial coronary arteries and myocardial ischemia is well established. In the past several decades, however, a number of studies have discovered that coronary microvascular dysfunction and remodeling contribute to myocardial ischemia in patients with normal coronary arteries. […] Recently, a novel two-stage mechanism for the action of FeCl3 in thrombus formation has been proposed. The first stage is based on colloidal chemistry principles whereby cells and plasma proteins adhere and aggregate due to the binding of negatively charged proteins to positively charged iron species. The extent of this stage is dependent on effective FeCl3 concentration, which is governed by intraluminal mass transport. […] (A) The hydrolysis of chromogenic substrate S2238 by different concentrations of thrombin was determined.

The nature of data set [2]: Saturation solubility of rutin by shake flask method. Type of data set: physicochemical. As to conditions: thermodynamic from solid.
Data set [3] relates to PDI. More on the design: method as in Jasuja et al., 2012. Particulars: insulin-based turbidimetric assay; 95% CI 1.1–10.7 μM; ref Jasuja et al., 2012; read-out: IC50 of PDI inhibition; cited from earlier work.

In brackets after ≈: the same amount, converted by molar mass.

Take `C[C@@H]1O[C@@H](OC[C@H]2O[C@@H](Oc3c(-c4ccc(O)c(O)c4)oc4cc(O)cc(O)c4c3=O)[C@H](O)[C@@H](O)[C@@H]2O)[C@H](O)[C@H](O)[C@H]1O` [rutin, quercetin-3-O-rutinoside]: the “effect on thrombin activity (hydrolysis of S2238)” value in data set [1] is “did not inhibit thrombin proteolytic activity”; in data set [1] (listed as native rutin), “did not affect the activity of thrombin”. Also, the solubility at 72 h was 32 ± 2 mg/mL (≈ 52.4 mM) in data set [2] (organic solvent or mixture, in 1,2-propylene glycol, 37 °C, 72 h); 24.3 ± 3.2 mg/mL (≈ 39.8 mM) in data set [2] (self-emulsifying formulation F2, 37 °C, in formulation F2); 19.2 ± 2.8 mg/mL (≈ 31.4 mM) in data set [2] (self-emulsifying formulation F5, 37 °C, in formulation F5); 16.2 ± 3.7 mg/mL (≈ 26.5 mM) in data set [2] (self-emulsifying formulation F7, 37 °C, in formulation F7); 5.2 ± 0.18 mg/mL (≈ 8.52 mM) in data set [2] (in Labrasol, 37 °C, 72 h). In addition, the IC50 in data set [3] is 6.1 µM.

The values above are taken from paper PMC9186361 (Drug Delivery, 2022).
